Patent publication US20130315828A1, “KIT AND METHOD OF USE OF TARGETING PEPTIDE FOR DIAGNOSIS AND THERAPY OF CANCER” (NATIONAL TSING HUA UNIVERSITY, priority 2012, published 2013)

Assays:
[1] = Fluorophore-assisted carbohydrate electrophoresis (FACE), GBP binding to glycosaminoglycans; conditions: LMWH, CS, DS; PBS, 25° C., 15 min; FIG. 1A
Procedure: (§1) Fluorophore-assisted carbohydrate electrophoresis (FACE) is carried out by pre-mixing (A) AMAC-labeled LMWH, chondroitin sulfate (CS), and dermatan sulfate (DS) and (B) AMAC-labeled LMWH, de-2-O-sulfated heparin, de-6-O-sulfated heparin, and N-acetyl-de-O-sulfated heparin (0.33 nmol) with indicated fold molar excess of GBP before incubated with or without peptide in PBS at 25° C. for 15 min. The reaction products are separated on a 1% agarose gel. The reacted probe and protein are shown above the gel. Relative intensity (%) of free probe and the unlabeled competitors are shown at the bottom of the gel.
(§2) Carbohydrate were labeled with 2-aminoacridone (AMAC) (Invitrogen, catalog no. A6289) according to previous study (Calabro, A., Benavides, M., Tammi, M., Hascall, V. C., and Midura, R. J. (2000) Microanalysis of enzyme digests of hyaluronan and chondroitin/dermatan sulfate by fluorophore-assisted carbohydrate electrophoresis (FACE), Glycobiology 10, 273-281). Briefly, fifty micrograms GAGs were dried by freeze-drying machine, and then incubated with 40 μl 1.25 M 2-aminoacridone (AMAC)/85% DMSO/15% acetic acid at 25° C. for 15 min. Forty microliters of 1.25 M sodium cyanoborohydride (NaBH3CN) was added and incubated at 37° C. for 16 h. Afterwards, 720 μl 99% ice-cold ethanol was added at −20° C. for 15 min, then centrifugation at 11,000×g at 4° C. for 5 min. […]

[2] = FACE, GBP binding to heparin and desulfated heparins; conditions: LMWH and desulfated heparins; FIG. 1B
Procedure: as §1, §2

neoplastic lung tissues = assay: IHC targeting of GBP in lung cancer tissue arrays, overall; assay type: binding, human
Procedure: The 5 μm slides were dried in the oven at 60° C. for 1 h. Briefly, the sections were deparaffinized with xylene (J. T. Baker Phillipsburg, N) for 15 min and rehydrated in graded ethanol solutions. Endogenous peroxidase activity was blocked by incubating the sections in a 3% hydrogen peroxide solution in distilled water for 10 min. The sections were then washed and placed in phosphate buffer for 10 min. Antigen retrieval was achieved by heat treatment using 10 mM citrate buffer solution pH 6.0 or by 0.1% trypsin treatment for 5 min (for 10E4). After the slides were blocked in 3% BSA solution for 1 h and incubated with 2 μM eGFP-GBP fusion protein for 2 h (for eGFP), these sections were then incubated with 10E4 antibody (1:200 dilution) and eGFP antibody (1:200 dilution) at 4° C. overnight, individually. […]
Every tumor was given a score according to the intensity of the nuclear or cytoplasmic staining (no staining=0; weak staining=1; moderate staining=2; strong staining=3) and the extent of stained cells (0-10%=0; 11-50%=1; 51-80%=2; 81-100%=3). The final immunoreactive score was determined by multiplying the intensity and extent of positivity scores of stained cells, with the minimum score of 0 and a maximum score of 9.
Specimen scores from 61 cases of lung cancers from tissue arrays were used for quantitative evaluation of IHC data. […]

With NYRWRCKNQN [GBP] the “GBP binding to glycosaminoglycans (FACE)” value [1] was “probed universal glycosaminoglycans including low molecular weight heparin, chondroitin sulfate and dermatan sulfate”, the “GBP recognition of sulfated HS / heparin derivatives (FACE)” value [2] was “identified sulfated HS, especially preferring O-sulfated heparin” and the “GBP recognition, aggressive versus early stage of cancer” value (neoplastic lung tissues) was “higher recognition toward more aggressive tumor progression”.
